Here are results for four compounds from patent US20240417395A1, “DUAL ANTAGONIST AND USE THEREOF” (NICOYA THERAPEUTICS (SHANGHAI) CO., LTD, priority 2021, published 2024).

In brackets after ≈: the same amount, converted by molar mass. Like-named read-outs stand apart in the source and are kept apart here. Residues, ends and D or L forms follow the SMILES beside them. Some results are limits rather than exact numbers.

The target in one data set is AT1 (Homo sapiens (Human), UniProt P30556). The experiment in a line: Calcium flux assay on AT1 cell line. In kind it is cell-based. Particulars: AT1/HEK293, calcium flux, angiotensin II agonist. As for the experimental part:
Test materials: a) cell line: AT1/HEK293; b) vehicles: F12, Invitrogen (Cat #11765-047); FBS, Corning (Cat #35-076-CV); Geneticin, Invitrogen (Cat #10131); c) reagent: Fluo-4 Direct, (Invitrogen, Cat #F10471); d) instruments: 384 well Poly-D-Lysine protein coating plate, Greiner #781946; Vi-cell XR Cell Viability Analyzer, Beckman Coulter; Incubator, Thermo.
For the agonist (angiotensin II) master plate, the agonist solution was diluted from 1 mM to 200 μM with the test buffer solution. […] Afterwards, 900 nL of each compound solution was transferred to the master plate and 30 μL of the test buffer solution was added. • a) The cell plate was removed from the incubator, and 20 μL of 2X Fluo-4 Direct was added by a pipette to a 384-well cell plate. • b) The cell plate was incubated at 37° C. for 50 min in the environment of 5% CO2, and then incubated at room temperature for 10 min. • c) The cell plate was removed from the incubator and placed in FLIPR. The compound plates and the tip box were placed in FLIPR. • d) Regarding the EC80 plate: • 1) Operations were conducted on […]. • 2) 10 μL of compound solution was transferred from the EC80 master plate to the cell plate. • 3) Fluorescence signals were read. • 4) The read signals were counted, and the EC80 value of each cell line was calculated using FLIPR. • 5) For the concentration of the compound plate, a solution having a concentration 6 times that of the reference agonist EC80 was formulated. • e) Regarding the compound plate: • 1) Operations were conducted on […]. • 2) 10 μL of compound was transferred to the cell plate. • 3) Fluorescence signals were read. • 4) 10 μL of solution having a concentration 6 times that of the reference agonist EC80 was transferred. • 5) Fluorescence signals were read. • f) Data analysis by Prism
(In general: A change in cytosolic calcium serves as a functional read-out for many receptors and channels.)

The next data set concerns the target ETa (Homo sapiens (Human), UniProt P25101). Briefly: Calcium flux assay on ETa cell line. The format is cell-based. To be noted: ETa/HEK293, calcium flux, endothelin-1 agonist. Here is the method: Test materials: a) cell line: ETa/HEK293; b) vehicles: DMEM, Invitrogen (Cat #11960); Geneticin, Invitrogen (Cat #10131); c) reagent: Fluo-4 Direct, (Invitrogen, Cat #F10471); d) instruments: 384 well Poly-D-Lysine protein coating plate, Greiner #781946; Vi-cell XR Cell Viability Analyzer, Beckman Coulter; Incubator, Thermo.
For the employed agonist endothelin factor (endothelin-1, ET-1) master plate: the agonist was diluted from 50 μM to 15 μM with the test buffer solution.
For antagonist (BQ123, Am J Physiol. 1994 April; 266 (4 Pt 2): H1327-31.) plates and the compound plates: the antagonist and the tested compounds were diluted with DMSO at a gradient ratio of 1:4 to obtain 10 concentration points. Afterwards, 900 nL of each compound solution was transferred to the master plate and 30 μL of the test buffer solution was added. • a) The cell line was removed from the incubator, and 20 μL of 2X Fluo-4 Direct™ buffer solution was added gently by a pipette to a 384-well cell culture plate. • b) The cell plate was incubated at 37° C. for 50 min in the environment of 5% CO2, and then incubated at room temperature for 10 min. • c) The cell plate was removed from the incubator and placed in FLIPR. The compound plates and the tip box were placed in FLIPR. • d) Regarding the EC80 plate: • 1) Operations were conducted on […]. • 2) 10 μL of compound solution was transferred from the EC80 master plate to the cell plate. • 3) Fluorescence signals were read. • 4) The read signals were counted, and the EC80 value of each cell line was calculated using FLIPR. • 5) For the concentration of the compound plate, a solution having a concentration 6 times that of the reference agonist EC80 was formulated. • e) Regarding the compound plate: • 1) Operations were conducted on […]. • 2) 10 μL of compound was transferred to the cell plate. • 3) Fluorescence signals were read. • 4) 10 μL of solution having a concentration 6 times that of the reference agonist EC80 was transferred to the cell plate. • 5) Fluorescence signals were read. • f) Data analysis by Prism

The nature of data set [1]: Experiment on water solubility (HPLC-UV). The format is physicochemical. Here is the method: The detection was carried out in accordance with the high performance liquid chromatography (General Principles 0512 of Chinese Pharmacopoeia Volume IV (2020)):
Chromatographic conditions for the HPLC-UV method: mobile phase: 0.02 M KH2PO4 aqueous solution-acetonitrile (90:10), gradient elution; chromatographic column: C18; detection wavelength: 210 nm. The water solubility was calculated based on the peak area by the external standard method.

ETa, sequence (P25101 21-427): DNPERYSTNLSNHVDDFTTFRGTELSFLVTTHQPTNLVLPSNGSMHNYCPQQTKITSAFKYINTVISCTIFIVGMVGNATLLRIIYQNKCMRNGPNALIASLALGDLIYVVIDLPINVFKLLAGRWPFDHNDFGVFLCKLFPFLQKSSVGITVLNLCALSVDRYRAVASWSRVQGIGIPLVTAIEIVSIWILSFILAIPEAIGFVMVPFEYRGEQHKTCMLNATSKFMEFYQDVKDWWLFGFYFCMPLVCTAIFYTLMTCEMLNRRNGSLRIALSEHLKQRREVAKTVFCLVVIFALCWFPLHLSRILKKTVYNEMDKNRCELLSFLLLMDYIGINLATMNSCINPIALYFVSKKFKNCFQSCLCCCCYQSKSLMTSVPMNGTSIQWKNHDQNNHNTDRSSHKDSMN
AT1, sequence (P30556 whole entry): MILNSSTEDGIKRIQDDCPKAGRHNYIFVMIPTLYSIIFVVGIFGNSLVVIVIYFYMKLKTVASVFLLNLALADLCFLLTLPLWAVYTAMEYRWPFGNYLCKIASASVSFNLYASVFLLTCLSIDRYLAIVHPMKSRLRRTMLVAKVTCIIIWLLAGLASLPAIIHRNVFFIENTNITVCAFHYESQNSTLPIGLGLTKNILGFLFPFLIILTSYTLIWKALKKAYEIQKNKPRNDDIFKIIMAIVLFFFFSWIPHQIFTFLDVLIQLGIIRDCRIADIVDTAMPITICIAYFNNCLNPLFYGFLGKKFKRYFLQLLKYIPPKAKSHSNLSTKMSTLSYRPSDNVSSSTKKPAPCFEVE

`CCCCC1=N[C@]2(C[C@H]3C[C@H]3C2)C(=O)N1Cc1ccc(-c2ccccc2S(=O)(=O)Nc2noc(C)c2C)c(CN(C)C(=O)CC(C)(C)C)c1` [Example 6]: the values for the 50% inhibitory concentration (IC50) on AT1 (read-out: IC50 against AT1) and at ETa (read-out: IC50 against ETa) were 258 nM and 17.6 nM, respectively.

On to `CC(C)C[C@@H]1NC(=O)[C@@H](C(C)C)NC(=O)[C@@H]2CCCN2C(=O)[C@@H](CC(=O)O)NC(=O)[C@@H](Cc2c[nH]c3ccccc23)NC1=O` [BQ123, reference compound] (HELM PEPTIDE1{L.[dW].[dD].P.[dV]}$PEPTIDE1,PEPTIDE1,1:R1-5:R2$$$V2.0), for which the IC50 (as a rule, the midpoint of a concentration-inhibition curve) on ETa (read-out: IC50 activity against ETa (class)) was 1 to 10 nM; on ETa (read-out: IC50 against ETa), 2.56 nM.

As to `CCCCC1=N[C@]2(C[C@H]3C[C@H]3C2)C(=O)N1Cc1ccc(-c2ccccc2S(=O)(=O)Nc2noc(C)c2C)c(COCC)c1` [Example 4], the half-inhibitory concentration (IC50) is 1 to 10 nM at AT1 (read-out: IC50 activity against AT1 (class)), 4.78 nM at AT1 (read-out: IC50 against AT1) and 132 nM on ETa (read-out: IC50 against ETa).

Take `CCCCC1=NC2(CC3(CC3)C2)C(=O)N1Cc1ccc(-c2ccccc2S(=O)(=O)Nc2noc(C)c2C)c(COCC)c1` [Example 1]: the IC50 worked out at 2.9 nM at AT1 (read-out: IC50 against AT1) and 24.6 nM on ETa (read-out: IC50 against ETa). In addition, the solubility (in general, the concentration that dissolves in the medium under given conditions) in data set [1] (aqueous medium at pH 7.4 (buffer not named), pH 7.4, aqueous buffer, pH7.4, read-out: Solubility pH7.4) is 370 µg/mL (≈ 612 µM); in data set [1] (pH 1.6, fassgf or other biorelevant, FaSSGF (pH1.6), read-out: Solubility FaSSGF (pH1.6)), greater than 1000 µg/mL; in data set [1] (pH 5, FeSSIF (pH5.0), read-out: Solubility FeSSIF (pH5.0)), 200 µg/mL (≈ 331 µM); in data set [1] (pH 6.5, FaSSIF (pH6.5), read-out: Solubility FaSSIF (pH6.5)), 610 µg/mL (≈ 1010 µM).
